This note sets out measurements from PMC6017654, “Ionic Liquid-Promoted Synthesis of Novel Chromone-Pyrimidine Coupled Derivatives, Antimicrobial Analysis, Enzyme Assay, Docking Study and Toxicity Study” (Molecules : A Journal of Synthetic Chemistry and Natural …, 2018).

Converted amounts (≈) assume the structure as drawn.

What all share (assay): In vitro antifungal activity (MIC100, CLSI/NCCLS)
Common to all, as to format: cell-based

The subject of one test is A. flavus. As to conditions: Aspergillus flavus; A. fla.; average of three readings; read-out: MIC 100. As to the method: (§1) The newly synthesized derivatives 4(a–f) and 6(a–f) were screened for their in vitro antifungal activity against different yeast and filamentous fungal pathogens. Minimum inhibitory concentration (MIC100) values for in vitro antifungal activity were determined by the methods recommended by National Committee for Clinical Laboratory Standards (NCCLS). Miconazole was used as standard drug. Dimethyl sulfoxide (DMSO) was used as solvent control.
(§2) In vitro antifungal activity was determined as per CLSI (formerly, NCCLS) guidelines. […] The medium yeast nitrogen base was dissolved in phosphate buffer pH 7 and it was autoclaved at 110 °C for 10 min. With each set a growth control without the antifungal agent and solvent control DMSO were included. The fungal strains were freshly sub cultured on to Sabouraud dextrose agar (SDA) and incubated at 25 °C for 72 h. The fungal cells were suspended in sterile distilled water and diluted to get 10^5 cells/mL. Further, ten microlitres of the standardized suspension was inoculated onto the control plates and the media incorporated with the antifungal agents. The inoculated plates were incubated at 25 °C for 48 h. The readings were taken at the end of 48 h and 72 h. The MIC was the lowest concentration of drug preventing growth of macroscopically visible colonies on drug containing plates when there was visible growth on the drug free control plates.

In another test the test system is Aspergillus fumigates. As to conditions: A. fum., average of three readings, read-out: MIC 100. How it is done:
as §1, §2

The next test concerns Aspergillus niger. As to conditions: A. nig., average of three readings, read-out: MIC 100. As to the method:
as §1, §2

For the next test, the system named is Candida albicans. As to conditions: C. alb., average of three readings, read-out: MIC 100. How it is done: as §1, §2
The next test relates to Candida glabrata. The conditions noted are these: Nakaseomyces glabratus; C. glab.; average of three readings; read-out: MIC 100. As to the method: as §1, §2
A further test deals with Cryptococcus neoformans. The conditions noted are these: C. neo., average of three readings, read-out: MIC 100. As to the method:
as §1, §2

The subject of the next test is Fusarium oxysporum. The conditions noted are these: F. oxy., average of three readings, read-out: MIC 100. As to the method:
as §1, §2

For orientation: MIC means the smallest concentration in the dilution series that meets the test's criterion for growth inhibition. For `COc1ccc2occ(C3NC(=S)NC(C)=C3C(=O)NN)c(=O)c2c1` (stereo not shown) [Compound 6f, 4-(6-Methoxy-4-oxo-4H-chromen-3-yl)-6-methyl-2-thioxo-1,2,3,4-tetrahydropyrimidine-5-carbohydrazide], the MIC came out at 15 µg/mL (≈ 41.6 µM) with A. flavus; 33 µg/mL (≈ 91.6 µM) in the test with Aspergillus fumigates; 16 µg/mL (≈ 44.4 µM) in the test with Aspergillus niger; 24 µg/mL (≈ 66.6 µM) in the test on Candida albicans; 25 µg/mL (≈ 69.4 µM) in the test on Candida glabrata; 15 µg/mL (≈ 41.6 µM) with Cryptococcus neoformans. The minimal inhibitory concentration (MIC) in the test on Fusarium oxysporum is 28 µg/mL (≈ 77.7 µM).
